Measured values published in US11725037B2, “Peptide dual agonists of GIPR and GLP2R” (University of Copenhagen, priority 2017, dated 2023).
One block for each molecule: values may come before it. Ends that are not written are not given here.

How the values were obtained:
human GLP-2 receptor = target: T1, human GLP-2 receptor (Homo sapiens, UniProt O95838); assay: cAMP accumulation assay (HitHunter cAMP XS) in transiently transfected COS-7 cells expressing the human GLP-2 receptor; format: cell-based; settings: for Emax at 10 µM: COS-7, read-out: Emax (10 μM), GLP-2 receptor; for fold (fold change of native GLP-2), GLP-2 receptor: EC50 relative to native GLP-2; for EC50: logEC50, GLP-2 receptor; for EC50 / logEC50, GLP-2 receptor: cAMP, COS-7; for logEC50, GLP-2 receptor: log value
T1 construct: host or cells: COS-7 (transient, calcium phosphate; pCMV-Script vector)
T1 sequence (O95838 1-553): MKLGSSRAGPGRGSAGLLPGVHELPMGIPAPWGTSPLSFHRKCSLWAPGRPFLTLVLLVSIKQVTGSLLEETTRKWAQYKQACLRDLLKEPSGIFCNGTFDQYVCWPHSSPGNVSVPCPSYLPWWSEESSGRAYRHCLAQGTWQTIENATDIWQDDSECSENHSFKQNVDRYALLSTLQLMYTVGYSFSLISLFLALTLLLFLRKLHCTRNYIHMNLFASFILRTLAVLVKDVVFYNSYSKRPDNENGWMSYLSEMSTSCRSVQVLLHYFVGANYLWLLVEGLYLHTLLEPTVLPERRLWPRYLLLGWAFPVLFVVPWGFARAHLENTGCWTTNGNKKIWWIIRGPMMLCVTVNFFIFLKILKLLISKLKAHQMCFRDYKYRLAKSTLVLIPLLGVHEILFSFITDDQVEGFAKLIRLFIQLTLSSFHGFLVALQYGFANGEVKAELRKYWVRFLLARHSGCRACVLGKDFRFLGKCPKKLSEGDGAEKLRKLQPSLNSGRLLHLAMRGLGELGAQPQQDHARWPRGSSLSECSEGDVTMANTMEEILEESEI
Experimental: (§1) The day after, the cells were washed twice with Hepes buffered saline (HBS) buffer and incubated with HBS and 1 mM 3-isobutyl-1-methylxanthine (IBMX) for 30 min at 37° C. Ligands were added and incubated for 30 min at 37° C. The HitHunter™ cAMP XS assay (DiscoveRx) was carried out according to the manufacturer's instructions.

human GIP receptor = target: T2, human GIP receptor (Homo sapiens, UniProt P48546); assay: cAMP accumulation assay (HitHunter cAMP XS) in transiently transfected COS-7 cells expressing the human GIP receptor; format: cell-based; settings: for Emax at 10 µM: COS-7, read-out: Emax (10 μM), GIP receptor; for potency (and efficacy) on the GIP receptor compared with native GIP, in words / fold (fold change of native GIP), GIP receptor / EC50: Table 1; for fold (fold change of native GIP), GIP receptor: EC50 relative to native GIP; for EC50: cAMP, COS-7
T2 construct: host or cells: COS-7 (transient, calcium phosphate; pCMV-Script vector)
T2 sequence (P48546 22-466): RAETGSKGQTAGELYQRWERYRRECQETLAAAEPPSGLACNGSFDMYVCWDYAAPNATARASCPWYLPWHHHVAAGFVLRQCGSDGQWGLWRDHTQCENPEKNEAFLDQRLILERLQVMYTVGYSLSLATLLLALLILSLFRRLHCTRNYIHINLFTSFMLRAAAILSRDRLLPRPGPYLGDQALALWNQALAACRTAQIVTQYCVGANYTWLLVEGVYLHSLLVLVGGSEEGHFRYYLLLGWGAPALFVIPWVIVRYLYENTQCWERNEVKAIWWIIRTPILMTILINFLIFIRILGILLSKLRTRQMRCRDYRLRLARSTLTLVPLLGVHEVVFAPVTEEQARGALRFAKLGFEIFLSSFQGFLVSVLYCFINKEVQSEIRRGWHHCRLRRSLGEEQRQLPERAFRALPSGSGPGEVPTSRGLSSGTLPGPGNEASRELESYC
Experimental: as §1

[1] = system: mouse mesenchymal osteoblast precursor cell line KS483; assay: Osteoblast differentiation assay: intracellular alkaline phosphatase activity (ALP) at day 8; format: cell-based; settings: 1 μM, day 8, KS483 cells, mean±sem, n=6
Experimental: Aim: Testing the effects of 2 test compounds on differentiation and activity of osteoblasts in vitro in a preliminary set-up.
Method: One concentration of each test compound (1 μM) is tested. Effects on osteoblast differentiation are studied using a mouse mesenchymal osteoblast precursor cell line KS483. The cells are cultured on plastic surface in 96-well plates for 8 days, allowing them to differentiate into mature bone-forming osteoblasts. Baseline with vehicle • 1. Compound 3: Vehicle • 2. Compound 5: GIP-GLP-2 agonist 3 (SEQ ID NO:3) • 3. Compound 6: GIP-GLP-2 agonist 19 (SEQ ID NO:19)
In osteoblast differentiation assay: Intracellular alkaline phosphatase activity (ALP) at day 8 as an index of the number of mature osteoblasts formed.

[2] = system: bone resorption (serum C-terminal cross-linking telopeptide of type I collagen, CTX); assay: Human study 1: bone resorption by serum CTX after subcutaneous injection of GIP or GLP-2; format: in vivo; settings: for reduction in bone resorption (CTX): 200 μg GIP and 800 μg GLP-2, each alone, s.c., restated in Example 4; for bone resorption (CTX), maximum effect, % of base line: healthy young men
Experimental: Method: Eight healthy young men were enrolled. […] Participants arrived in the morning (fasted overnight) and received the injection around 8.30 a.m. Blood samples were collected before (−25 and −10 min) and every 30 minutes after injection (30, 60, 90, 120, 180 and 240 min). After last participant's last visit, bone resorption was determined by measurements of serum C-terminal cross-linking telopeptide of type I collagen (CTX; IDS Immunodiagnostic Systems GmbH, Frankfurt am Main, Germany)

[3] = logEC50, GIP receptor, log value

Molecule: CC[C@H](C)[C@H](NC(=O)[C@H](Cc1ccccc1)NC(=O)[C@H](CC(=O)O)NC(=O)[C@H](CCCNC(=N)N)NC(=O)[C@H](C)NC(=O)[C@H](C)NC(=O)[C@H](CC(C)C)NC(=O)[C@H](CC(N)=O)NC(=O)[C@H](CC(=O)O)NC(=O)[C@H](CC(C)C)NC(=O)[C@@H](NC(=O)[C@@H](NC(=O)[C@H](CO)NC(=O)[C@H](Cc1ccc(O)cc1)NC(=O)[C@H](CC(=O)O)NC(=O)[C@H](CO)NC(=O)[C@@H](NC(=O)[C@H](Cc1ccccc1)NC(=O)[C@@H](NC(=O)CNC(=O)[C@H](CC(=O)O)NC(=O)[C@H](C)NC(=O)[C@@H](N)Cc1c[nH]cn1)[C@@H](C)O)[C@@H](C)CC)[C@@H](C)O)[C@@H](C)CC)C(=O)N[C@@H](CC(N)=O)C(=O)N[C@@H](Cc1c[nH]c2ccccc12)C(=O)N[C@@H](CC(C)C)C(=O)N[C@H](C(=O)N[C@@H](CCC(N)=O)C(=O)N[C@H](C(=O)N[C@@H](CCCCN)C(=O)N[C@H](C(=O)N[C@H](C(=O)N[C@@H](CC(=O)O)C(=O)O)[C@@H](C)O)[C@@H](C)CC)[C@@H](C)O)[C@@H](C)CC [Co-agonist 3]
- Emax at 10 µM (human GLP-2 receptor): 100%
- fold (fold change of native GLP-2), GLP-2 receptor (human GLP-2 receptor; Table 1): 18 fold
- EC50 (human GLP-2 receptor; Table 1): 21.4 nM
- Emax at 10 µM (human GIP receptor): 100%
- potency (and efficacy) on the GIP receptor compared with native GIP, in words (human GIP receptor): same potency as native GIP(1-42)
- fold (fold change of native GIP), GIP receptor (human GIP receptor): 1.2 fold
- EC50 (human GIP receptor; [3]): 0.107 nM
- ALP activity compared to vehicle [1]: 112±5.6%

Molecule: CC[C@H](C)[C@H](NC(=O)[C@H](Cc1ccccc1)NC(=O)[C@H](CC(=O)O)NC(=O)[C@H](CCCNC(=N)N)NC(=O)[C@H](C)NC(=O)[C@H](C)NC(=O)[C@H](CC(C)C)NC(=O)[C@H](CC(N)=O)NC(=O)[C@H](CC(=O)O)NC(=O)[C@H](CC(C)C)NC(=O)[C@@H](NC(=O)[C@@H](NC(=O)[C@H](CO)NC(=O)[C@H](Cc1ccc(O)cc1)NC(=O)[C@H](CC(=O)O)NC(=O)[C@H](CO)NC(=O)[C@@H](NC(=O)[C@H](Cc1ccccc1)NC(=O)[C@@H](NC(=O)CNC(=O)[C@H](CC(=O)O)NC(=O)[C@H](C)NC(=O)[C@@H](N)Cc1c[nH]cn1)[C@@H](C)O)[C@@H](C)CC)[C@@H](C)O)[C@@H](C)CC)C(=O)N[C@@H](CC(N)=O)C(=O)N[C@@H](Cc1c[nH]c2ccccc12)C(=O)N[C@@H](CC(C)C)C(=O)N[C@H](C(=O)N[C@@H](CCC(N)=O)C(=O)N[C@H](C(=O)N[C@@H](CCCCN)C(=O)NCC(=O)N[C@@H](CCCCN)C(=O)N[C@@H](CCCCN)C(=O)O)[C@@H](C)O)[C@@H](C)CC [Co-agonist 19]
- Emax at 10 µM (human GLP-2 receptor): 91%
- potency and efficacy on the GLP-2R compared with native GLP-2, in words (human GLP-2 receptor; Table 1): almost the same potency and efficacy
- Emax at 10 µM (human GIP receptor): 93%
- potency (and efficacy) on the GIP receptor compared with native GIP, in words (human GIP receptor): almost the same potency and efficacy
- EC50 (human GIP receptor; [3]): 0.251 nM
- ALP activity compared to vehicle [1]: 115±8.9%

Molecule: CC[C@H](C)[C@H](NC(=O)[C@H](Cc1ccccc1)NC(=O)[C@H](CC(=O)O)NC(=O)[C@H](CCCNC(=N)N)NC(=O)[C@H](C)NC(=O)[C@H](C)NC(=O)[C@H](CC(C)C)NC(=O)[C@H](CC(N)=O)NC(=O)[C@H](CC(=O)O)NC(=O)[C@H](CC(C)C)NC(=O)[C@@H](NC(=O)[C@@H](NC(=O)[C@H](CC(N)=O)NC(=O)[C@H](CCSC)NC(=O)[C@H](CCC(=O)O)NC(=O)[C@H](CC(=O)O)NC(=O)[C@H](CO)NC(=O)[C@H](Cc1ccccc1)NC(=O)[C@H](CO)NC(=O)CNC(=O)[C@H](CC(=O)O)NC(=O)[C@H](C)NC(=O)[C@@H](N)Cc1c[nH]cn1)[C@@H](C)O)[C@@H](C)CC)C(=O)N[C@@H](CC(N)=O)C(=O)N[C@@H](Cc1c[nH]c2ccccc12)C(=O)N[C@@H](CC(C)C)C(=O)N[C@H](C(=O)N[C@@H](CCC(N)=O)C(=O)N[C@H](C(=O)N[C@@H](CCCCN)C(=O)N[C@H](C(=O)N[C@H](C(=O)N[C@@H](CC(=O)O)C(=O)O)[C@@H](C)O)[C@@H](C)CC)[C@@H](C)O)[C@@H](C)CC [GLP-2, reference compound]
- Emax at 10 µM (human GIP receptor): 22%
- EC50 (human GIP receptor; EC50(nM), GIP receptor): 56 nM
- reduction in bone resorption (CTX) [2]: ~50%
- bone resorption (CTX), maximum effect, % of base line ([2]; human GLP-2 800 μg s.c., 180 min after administration): 63.4±3.4 % of base line

Second part, led by results:

- logEC50, GLP-2 receptor (human GLP-2 receptor; Table 1): no activation
- logEC50, GLP-2 receptor (human GLP-2 receptor; Table 2): no activation
Molecule: CC[C@H](C)[C@H](NC(=O)[C@H](CO)NC(=O)[C@H](Cc1ccc(O)cc1)NC(=O)[C@H](CC(=O)O)NC(=O)[C@H](CO)NC(=O)[C@@H](NC(=O)[C@H](Cc1ccccc1)NC(=O)[C@@H](NC(=O)CNC(=O)[C@H](CCC(=O)O)NC(=O)[C@H](C)NC(=O)[C@@H](N)Cc1ccc(O)cc1)[C@@H](C)O)[C@@H](C)CC)C(=O)N[C@@H](C)C(=O)N[C@@H](CCSC)C(=O)N[C@@H](CC(=O)O)C(=O)N[C@@H](CCCCN)C(=O)N[C@H](C(=O)N[C@@H](Cc1c[nH]cn1)C(=O)N[C@@H](CCC(N)=O)C(=O)N[C@@H](CCC(N)=O)C(=O)N[C@@H](CC(=O)O)C(=O)N[C@@H](Cc1ccccc1)C(=O)N[C@H](C(=O)N[C@@H](CC(N)=O)C(=O)N[C@@H](Cc1c[nH]c2ccccc12)C(=O)N[C@@H](CC(C)C)C(=O)N[C@@H](CC(C)C)C(=O)N[C@@H](C)C(=O)N[C@@H](CCC(N)=O)C(=O)N[C@@H](CCCCN)C(=O)NCC(=O)N[C@@H](CCCCN)C(=O)N[C@@H](CCCCN)C(=O)N[C@@H](CC(N)=O)C(=O)N[C@@H](CC(=O)O)C(=O)N[C@@H](Cc1c[nH]c2ccccc12)C(=O)N[C@@H](CCCCN)C(=O)N[C@@H](Cc1c[nH]cn1)C(=O)N[C@@H](CC(N)=O)C(=O)N[C@H](C(=O)N[C@H](C(=O)N[C@@H](CCC(N)=O)C(=O)O)[C@@H](C)O)[C@@H](C)CC)C(C)C)[C@@H](C)CC [GIP, reference compound]
- reduction in bone resorption (CTX) [2]: ~50%
- bone resorption (CTX), maximum effect, % of base line ([2]; human GIP 200 μg s.c., 90 min after injection): 56.2±11.2 % of base line

- Emax at 10 µM (human GLP-2 receptor): 81%
- fold (fold change of native GLP-2), GLP-2 receptor (human GLP-2 receptor; Table 1): 21 fold
- EC50 (human GLP-2 receptor; Table 1): 25.1 nM
- Emax at 10 µM (human GIP receptor): 96%
- fold (fold change of native GIP), GIP receptor (human GIP receptor): 12 fold
- EC50 (human GIP receptor; [3]): 1.1 nM
Molecule: HVDGTFISDYSTILDNLAARDFINWLIQTKITD [Co-agonist 12]
